Where “and” joins values, the source holds several entries; their conditions need not be identical. Equal values may be shown once. Read-outs that look alike come from different tables or passages of the source.
What was measured:
HeLa cells [1] = assay: β-Galactosidase reporter gene assay after single or repetitive transfection with antagonist (Example 4); assay type: cell-based, human; conditions: development time 10 min; for β-Galactosidase assay absorption, average value of duplicates 1&2/2: single transfection
Experimental: 1st day: Analogous to Example 3.
The antagonist is adjusted to a concentration of 0.025 μg/μl with PBS.
The lipoplexes are then prepared.
Analogously to Example 3.
Analogous to Example 1 (with half amounts)

HeLa-Luc cells [2] = assay: Vitality determination with trypan blue after siRNA transfection in the presence of TLR7/8 agonists (Example 9); conditions: 48 hours
Experimental: (§1) The cells are to be plated out at a cell count of 2×10^4 cells/cm^2 per well of 250 μl of complete medium.
(§2) First of all, the first 5 wells of the first three rows of a 48-well plate are each filled with 30 μl of PBS.
(§3) The stock solution of anti-luciferase-siRNA and the non-specific-control-siRNA is adjusted to a concentration of 1 pmol/10 μl with PBS. Then 10 μl of the working solution of the anti-luciferase-siRNA are pipetted into each of the first three wells of the first three rows of the 48-well plate. 10 μl of the working solution of the non-specific-control-siRNA are pipetted into each fourth well.
(§4) The Metafectene Pro reagent is diluted 1:300 with PBS. 20 μl of that dilution are introduced into each well containing siRNA.
(§5) The lipoplexes are then incubated for 20 minutes at room temperature. Then 250 μl of cell suspension are added to each well.
Two different agonists are added to the first 2 columns of the two 48-well plates, with three different working concentrations of the agonists being used. The agonists are in lyophilised form. They are dissolved with endotoxin-free water to form stock solutions having the concentration 100 μg/ml. The stock solutions are each diluted 1:10 with water to give working solutions. […]
After the addition of the agonists, the two 48-well plates are incubated in a CO2 incubator for 48 hours.
After an incubation period of 48 hours, the cells of a plate are trypsinised and, using a Neubauer counting chamber, vitality measurement is carried out for each well with trypan blue.

HeLa-Luc cells [3] = assay: Luciferase assay after siRNA transfection in the presence of TLR7/8 agonists (Example 9); assay type: cell-based, human; conditions: imiquimod 0.25 μg/ml final concentration (row A, column 1) + anti-luciferase-siRNA/Metafectene Pro; 48 hours
Experimental: as §1, §2, §3, §4, §5
Two different agonists are added to the first 2 columns of the two 48-well plates, with three different working concentrations of the agonists being used. The agonists are in lyophilised form. They are dissolved with endotoxin-free water to form stock solutions having the concentration 100 μg/ml. The stock solutions are each diluted 1:10 with water to give working solutions.
Of the imiquimod working solution, 0.78 μl (=0.25 μg/ml final concentration) are pipetted into A1, 15.5 μl (=5 μg/ml) into A2 and 31 μl (=10 μg/ml) into A3. […]

HeLa-Luc cells [4] = assay: Luciferase assay after anti-luciferase-siRNA transfection in the presence of kinase inhibitors (Example 8); conditions: anti-luciferase-siRNA 1 pMol/well, Metafectene Pro
HeLa cells [5] = conditions: transfection repeated on 3rd day, pre-incubation 2 hours, development time 10 min
Experimental: 1st day: HeLa cells are sown in a 48-well plate, the cells being plated out at a cell count of 0.8*10^5 cells per well of 250 μl of complete medium (10% FCS). […] 1 mg of inhibitor is dissolved in 100 μl of DMSO (stock solution). Dilution is then carried out with PBS 1:20 (working solution). […] The lipoplexes are then prepared. […] The two solutions are then mixed and incubated for 15 min. Finally, 50 μl of the lipoplex solution are added to each well. […] Analogous to Example 1 (with half amounts)

[6] = repetitive transfection, antagonist 0.0625 μg per well
[7] = repetitive transfection, antagonist 0.125 μg per well
[8] = repetitive transfection, antagonist 0.250 μg per well
[9] = repetitive transfection, antagonist 0.375 μg per well
[10] = repetitive transfection, antagonist 0.75 μg per well

In the case of “Human Interleukin-1 Receptor Antagonist (IL1-ra Human): Human interleukin-1 receptor antagonist, Biomol, Cat. No. 54592”, the “β-Galactosidase assay absorption, average value of 3 measurements” value (HeLa cells [1]; [6]) is reported as 0.791 and 1.021, the “β-Galactosidase assay absorption, average value of duplicates 3&4/2” value (HeLa cells [1]; [6]) is reported as 0.906 and the “β-Galactosidase assay absorption, average value of 3 measurements” value (HeLa cells [1]; [7]) is reported as 0.856 and 1.185. For the same molecule, the “β-Galactosidase assay absorption, average value of duplicates 3&4/2” value (HeLa cells [1]; [7]) was 1.020, the “β-Galactosidase assay absorption, average value of 3 measurements” value (HeLa cells [1]; [8]) was 1.035 and 1.026 and the “β-Galactosidase assay absorption, average value of duplicates 3&4/2” value (HeLa cells [1]; [8]) was 1.030. The “β-Galactosidase assay absorption, average value of 3 measurements” value (HeLa cells [1]; [9]) was 1.076 and 1.081, the “β-Galactosidase assay absorption, average value of duplicates 3&4/2” value (HeLa cells [1]; [9]) was 1.078 and the “β-Galactosidase assay absorption, average value of 3 measurements” value (HeLa cells [1]; [10]) was 1.161 and 1.207. For the same molecule, the “β-Galactosidase assay absorption, average value of duplicates 3&4/2” value (HeLa cells [1]; [10]) was 1.184, the “β-Galactosidase assay absorption, average value of 3 measurements” value (HeLa cells [1]; single transfection (columns 1, 2), antagonist 0.0625 μg per well, pre-incubation 7 hours) was 0.427 and 0.448 and the “β-Galactosidase assay absorption, average value of 3 measurements” value (HeLa cells [1]; single transfection (columns 1, 2), antagonist 0.125 μg per well, pre-incubation 7 hours) was 0.415 and 0.435. For the same molecule, the “β-Galactosidase assay absorption, average value of 3 measurements” value (HeLa cells [1]; single transfection (columns 1, 2), antagonist 0.250 μg per well, pre-incubation 7 hours) was 0.393 and 0.439, the “β-Galactosidase assay absorption, average value of 3 measurements” value (HeLa cells [1]; single transfection (columns 1, 2), antagonist 0.375 μg per well, pre-incubation 7 hours) was 0.392 and 0.460 and the “β-Galactosidase assay absorption, average value of 3 measurements” value (HeLa cells [1]; single transfection (columns 1, 2), antagonist 0.75 μg per well, pre-incubation 7 hours) was 0.443 and 0.455. The “β-Galactosidase assay absorption, average value of duplicates 1&2/2” value (HeLa cells [1]; antagonist 0.0625 μg per well) was 0.437, the “β-Galactosidase assay absorption, average value of duplicates 1&2/2” value (HeLa cells [1]; antagonist 0.125 μg per well) was 0.425 and the “β-Galactosidase assay absorption, average value of duplicates 1&2/2” value (HeLa cells [1]; antagonist 0.250 μg per well) was 0.416. The “β-Galactosidase assay absorption, average value of duplicates 1&2/2” value (HeLa cells [1]; antagonist 0.375 μg per well) was 0.426 and the “β-Galactosidase assay absorption, average value of duplicates 1&2/2” value (HeLa cells [1]; antagonist 0.75 μg per well) was 0.449.
For CC(C)Cn1cnc2c(N)nc3ccccc3c21 [Imiquimod, 1-(2-methylpropyl)-1H-imidazo[4,5-c]quinoline-4-amine], the “Vitality (trypan blue staining)” value (HeLa-Luc cells [2]; Imiquimod 0.5 μg/ml + anti-luciferase-siRNA/Metafectene Pro) was 98.6%, the “Vitality (trypan blue staining)” value (HeLa-Luc cells [2]; Imiquimod 5 μg/ml + anti-luciferase-siRNA/Metafectene Pro) was 88.7% and the “Vitality (trypan blue staining)” value (HeLa-Luc cells [2]; Imiquimod 10 μg/ml + anti-luciferase-siRNA/Metafectene Pro) was 88.6%. For the same molecule, the “Luciferase assay, average value of 3×3 measurements” value (“Luciferase assay, average value” for short) (HeLa-Luc cells [3]) was 676 RLU/μl cell extract/sec.
For C[S+]([O-])c1ccc(-c2nc(-c3ccncc3)c(-c3ccc(F)cc3)[nH]2)cc1 (stereo not shown) [SB203580], the “Luciferase assay, average value” value (HeLa-Luc cells [4]; single transfection, SB203580 5 μM) was 693 RLU/μl ell extract/sec, the “Luciferase assay, average value” value (HeLa-Luc cells [4]; single transfection, SB203580 10 μM) was 747 RLU/μl ell extract/sec and the “Luciferase assay, average value” value (HeLa-Luc cells [4]; single transfection, SB203580 20 μM) was 630 RLU/μl ell extract/sec. The “Luciferase assay, average value” value (HeLa-Luc cells [4]; single transfection, SB203580 30 μM) was 671 RLU/μl ell extract/sec, the “Luciferase assay, average value” value (HeLa-Luc cells [4]; single transfection, SB203580 40 μM) was 669 RLU/μl ell extract/sec and the “Luciferase assay, average value” value (HeLa-Luc cells [4]; transfection repeated on 3rd day, SB203580 5 μM) was 696 RLU/μl ell extract/sec. For the same molecule, the “Luciferase assay, average value” value (HeLa-Luc cells [4]; transfection repeated on 3rd day, SB203580 10 μM) was 656 RLU/μl ell extract/sec, the “Luciferase assay, average value” value (HeLa-Luc cells [4]; transfection repeated on 3rd day, SB203580 20 μM) was 617 RLU/μl ell extract/sec and the “Luciferase assay, average value” value (HeLa-Luc cells [4]; transfection repeated on 3rd day, SB203580 30 μM) was 587 RLU/μl ell extract/sec. The “Luciferase assay, average value” value (HeLa-Luc cells [4]; transfection repeated on 3rd day, SB203580 40 μM) was 610 RLU/μl ell extract/sec.
In the case of N#CC(=C(/N)Sc1ccccc1N)/C(C#N)=C(/N)Sc1ccccc1N [U0126, 1,4-diamino-2,3-dicyano-1,4-bis(o-aminophenylmercapto)butadiene], the “Luciferase assay, average value” value (HeLa-Luc cells [4]; single transfection, U0126 75 μM) is reported as 260 RLU/μl ell extract/sec, the “β-Galactosidase assay absorption, average value of 3 measurements” value (HeLa cells [5]; inhibitor 5 μM (well E)) is reported as 0.72 and the “β-Galactosidase assay absorption, average value of 3 measurements” value (HeLa cells [5]; inhibitor 10 μM (well D)) is reported as 0.92. For the same molecule, the “β-Galactosidase assay absorption, average value of 3 measurements” value (HeLa cells [5]; inhibitor 25 μM (well C)) was 0.79, the “β-Galactosidase assay absorption, average value of 3 measurements” value (HeLa cells [5]; inhibitor 50 μM (well B)) was 0.90 and the “β-Galactosidase assay absorption, average value of 3 measurements” value (HeLa cells [5]; inhibitor 75 μM (well A)) was 0.97.

Reference: patent US20110045001A1, “Transfection results of non-viral gene delivery systems by influencing of the innate immune system” (Biontex Laboratories GmbH, priority 2008, published 2011)
